What was measured:
[1] = tested on: Pseudomonas syringae pv. tomato strain DC3000
[2] = tested on: bacteria, fungal spores, and fungal mycelia; format: cell-based; details: SYTOX Green, crude peptides, room temperature in dark for 2 h
[3] = tested on: Ralstonia solanacearum strain Pss4; details: Rs Pss4; optimal minimal medium, crude peptides (Table 9)
[4] = tested on: Xanthomonas oryzae pv. oryzae strain Xoo28; details: Xoo Xoo28; Table 7
[5] = in vitro; format: cell-based; details: human, HEK293 cells
Description: PepD3 was dissolved in water and filtered through a 0.2-μm filter. The peptide concentration was quantitated by UV280 to make a stock solution of 5120 μg/mL. The pepD3 stock solution was serially diluted in the serum-free DMEM. […] The serum-free DMEM medium without peptide was used as negative control. Cell viability was assessed using the Cell Titer 96 Aqueous One Solution Cell Proliferation Assay (Promega), in accordance with the manufacturer's instructions. The absorbance was measured with an Infinite M1000 pro (Tecan) at a wavelength of 490 nm. Data were normalized to the negative control to obtain the percentage of cell viability.

[6] = tested on: Cgl FST02; format: cell-based, Colletotricum gloeosporioides; details: Cgl FST02; optimal minimal medium, crude peptides (Table 9)

Q: For Ac-WKKLKKLLKKL-NH2 [pepD3], which MBC [1] is on record?
A: The MBC was 17.3 µg/mL.

Q: And the MIC [1]?
A: The MIC was 9.3 µg/mL.

Q: What about the “membranolytic effect on the cell walls of bacteria, fungal spores, and fungal mycelia” value [2] of the same substance?
A: Its value is “significant membranolytic effect”.

Q: What about the MBC/MFC [3] of the same substance?
A: The MBC/MFC was “— (“—” indicates no antimicrobial activity being detected at the highest peptide concentration (32 μg/mL) tested in this study.)”.

Q: What about the MIC [3] of the same substance?
A: Its MIC is “— (“—” indicates no antimicrobial activity being detected at the highest peptide concentration (32 μg/mL) tested in this study.)”.

Q: What about the MBC [4] of the same substance?
A: Its MBC is 4.4 µg/mL.

Q: And the MIC [4]?
A: Its MIC is 3.6 µg/mL.

Q: And the viability at 1 h, 32 µg/mL [5]?
A: The viability at 1 h, 32 µg/mL was over 91%.

Q: What about the MBC/MFC [6] of the same substance?
A: Its MBC/MFC is “— (“—” indicates no antimicrobial activity being detected at the highest peptide concentration (32 μg/mL) tested in this study.)”.

Q: And the MIC [6]?
A: Its MIC is “— (“—” indicates no antimicrobial activity being detected at the highest peptide concentration (32 μg/mL) tested in this study.)”.
